Entries after “also recorded” stand apart in the source; their conditions may differ. Where two headings read alike, the source gives them in different places.
Legend:
caspase 3 = assay: CisPt-induced caspase 3 activation in HEI-OC1 cells; type: cell-based
Protocol: To identify off-target activities of LPT99, its selectivity against a panel of receptors (44 G-protein-coupled receptors [GPCR] and 4 non-GPCR), 4 ion channels, and 3 transporters were analyzed. The cell line, HEI-OC1 (house ear institute organ of Corti 1), which expresses several characteristic markers of the organ of Corti sensory cells (Kalinec, et al., Audiol. Neurootol. 2003, 8(4), 177-89), was used to evaluate the efficacy of LPT99 in preventing apoptosis due to […]. Cells were pre-incubated with LPT99, followed by […] for 24 hours.

[1] = test system: CisPt-induced hearing loss; assay: model of CisPt-induced hearing loss in rats; type: in vivo; conditions: rat
Protocol: A model of CisPt-induced hearing loss in rats was evaluated to test the in vivo efficacy of LPT99. Ototoxicity was induced by intraperitoneal (IP) slow infusion of CisPt at doses that compared with those used in human preventions (eg, 10 mg/kg). LPT99 was administered IT 30 minutes before CisPt was given.
The protective effect of LPT99 was evaluated 3 days after CisPt administration by functional measures, such as auditory brainstem response (ABR) threshold shift, DPOAE, and expression of biomarkers of apoptosis in cochlea and cytocochleograms.

[2] = test system: BALB/c 3T3 mouse fibroblasts; assay: in vitro phototoxicity; type: cell-based; conditions: ≤100 μM
Protocol: An in vitro experiment was performed in BALB/c 3T3 mouse fibroblasts to determine the phototoxic potential of LPT99 at concentrations of ≤100 μM in 3T3 L1 cells.

[3] = GLP acute systemic toxicity study with toxicokinetics, single IP dose; type: in vivo; conditions: Sprague-Dawley, plasma, rat
Protocol: (§1) A GLP acute systemic toxicity study was conducted with LPT99 administered via IP injection in Sprague-Dawley rats. The acute systemic toxicity study was preceded by a non-GLP maximum tolerated dose (MTD) toxicity study, via the same administration and test system, which determined the MTD of LTP99 to be 1000 mg/kg.
(§2) LPT99 was suspended in vehicle [0.5% w/v methylcellulose and 0.1% v/v TWEEN® 80 in Milli-Q water] and administered intraperitoneally to Sprague-Dawley rats as a single dose at the doses of 100 (low—G2/G2TK), 300 (mid—G3/G3TK), and 750 (high—G4/G4TK) mg/kg body weight. The rats in vehicle control groups (G1/G1TK) received the vehicle alone. The dose volume administered was at an equivolume of 10 mL/kg body weight for all groups.
(§3) The main toxicity groups consist of 15 rats/sex/group in G1 and G4 groups and 10 rats/sex/group in G2 and G3 groups. The toxicokinetic groups consisted of 6 males and 6 female rats each for the prevention groups, whereas the vehicle control group had 3 male and 3 female rats.

Sprague-Dawley rats = assay: as above; type: in vivo; conditions: rat; for dose proportionality of Cmax and AUClast: IP 100 to 750 mg/kg/day
Protocol: as §1, §2, §3

[4] = physical stability of drug product vials; type: physicochemical; conditions: for original drug concentration remaining in solution: filtered through 0.2 micron filters
Protocol: Vials of the drug product were stored at either room temperature or 4° C. for a period greater than three months.

COc1ccc2[nH]cc(CCNC(=O)CC3C(=O)N(CCc4ccc(Cl)cc4Cl)CC(=O)N3CCc3cccs3)c2c1 (stereo not shown) [LPT99, 2-(4-(2,4-dichlorophenethyl)-3,6-dioxo-1-(2-(thiophen-2-yl)ethyl)piperazin-2-yl)-N-(2-(5-methoxy-1H-indol-3-yl)ethyl)acetamide]
caspase 3 activation in the cellular model (caspase 3; cellular model of CisPt-induced apoptosis): reduced caspase-3 activation | IC50 (caspase 3; read-out: 50% inhibitory concentration (IC50) for caspase 3, HEI-OC1 cells pre-incubated with LPT99, then CisPt for 24 hours): 5.2 ± 1.6 µM | ABR threshold shift induced by CisPt ([1]; IT LPT99-CD, 3 days after administration, especially 20, 28, or 40 kHz): attenuated the ABR threshold shift | auditory threshold shifts vs CisPt control group ([1]; IT LPT99 in hydrogel plus CisPt): significantly lower auditory threshold shifts | protection against CisPt-induced hearing loss ([1]; IT LPT99 solution (hydrogel), 63 μg/mL [100 μM] and 300 μg/mL [478 μM]): protected against CisPt-induced hearing loss; also recorded: protective effects against CisPt-induced hearing loss | cytotoxicity in the presence or absence of ultraviolet-visible irradiation [2]: not cytotoxic | phototoxicity [2]: not be phototoxic | Tmax ([3]; IP 100 mg/kg/day, female, read-out: Tmax): 8 h | Tmax ([3]; IP 100 mg/kg/day, male, read-out: Tmax): 2 h | Tmax ([3]; both sexes, IP, dose levels other than 100 mg/kg/day, both genders, read-out: time to reach peak plasma concentrations (Tmax)): 24 h | body weights or body weight gains (Sprague-Dawley rats; IP 750 mg/kg, first 7 days, both sex): not statistically significantly lower | food consumption (Sprague-Dawley rats; IP 750 mg/kg, males days 1-7, females days 1-4, vs control): statistically significant reduction | epididymides weight (Sprague-Dawley rats; IP 750 mg/kg, males, Day 2): increase in epididymides weight | neutrophil count (Sprague-Dawley rats; IP 750 mg/kg, males, Day 15): minimal increase in neutrophil count | dose proportionality of Cmax and AUClast (Sprague-Dawley rats; female): approximate dose proportional increase | dose proportionality of Cmax and AUClast (Sprague-Dawley rats; male): More than dose proportional increase | liver weight (Sprague-Dawley rats; IP 300 and 750 mg/kg, males and females, Day 2): increase in liver weight | inflammatory response, localisation (Sprague-Dawley rats; IP, Day 2 and Day 15, parenchyma not affected): restricted to the mesentery and surface of the visceral organs in abdominal cavity | coagulation parameters (Sprague-Dawley rats; IP, Days 2 and 15): not affected | urinalysis parameters (Sprague-Dawley rats; IP, Days 2 and 15): unaffected | neutrophil count (Sprague-Dawley rats; IP, all dose groups, Day 2): increased neutrophil count | mediastinal lymph node, microscopic finding (Sprague-Dawley rats; IP, all test item injected groups, Day 2): necrosis/inflammation of lymph node | exposure in females relative to males (Sprague-Dawley rats; IP, all tested dose levels): 1.5-5.5 fold | clinical chemistry parameters (Sprague-Dawley rats; IP, males): no test item related changes | general tolerability (Sprague-Dawley rats; single IP 100, 300, 750 mg/kg): generally safe and well tolerated | mortality (Sprague-Dawley rats; single IP 100, 300, 750 mg/kg): No mortality was observed | clinical signs (Sprague-Dawley rats; single IP, all tested dose groups): no clinical signs observed | time to precipitation ([4]; vials stored at 4 C): approximately 2 months | original drug concentration remaining in solution ([4]; vials stored at 4 C): less than 10% | original drug concentration remaining in solution ([4]; vials stored at room temperature): 100% | appearance of solution ([4]; vials stored at room temperature, greater than three months): remained clear with no evidence of drug precipitation
